In US11242337B2, “Compounds useful for treating gastrointestinal tract disorders” (Ardelyx, Inc., priority 2017, dated 2022):

Columns and labels:
[1] = human absorption data, from Ertl et al., J. Med. Chem, 2000; cited from earlier work
gastrointestinal transit = assay: Restoration of gastrointestinal motility in opioid induced constipation (loperamide); type: in vivo, mice; conditions: vehicle orally, loperamide (0.3 to 6 mg/kg) subcutaneously, 30-minute period
Method: Approximately eight-week old, female, CD1 […] are purchased from Envigo (Livermore, Calif.), are housed 4 per cage and acclimated for at least 48 hours before study initiation. Animals are fed standard laboratory rodent chow Harlan Teklad Global 2018 (Madison, Wis.). Animals have ad libitum access to food and water for the duration of the acclimation period and are maintained in a temperature and humidity controlled room on a standard light/dark cycle of 6 AM to 6 PM. Following an overnight fast, with free access to water, animals are dosed by oral gavage with varying doses of test compound or vehicle (3 mM HCl, 0.01% Tween80), at a dose volume of 5 mL/kg. […] For an individual animal, the length travels by the Evans Blue dye front is divided by the length of the whole small intestine, measured from the pylorus to the cecum, and multiplied by 100, to provide the distance of the small intestine travelled by the dye as a percentage.

NHE3 = molecular target: T1, NHE3 (Homo sapiens, UniProt P48764); assay: persistent inhibition of NHE3 in the cell-based assay of example 181 (4-chloro vs 4-cyano pairs); conditions: for IC50: read-out: pIC50 (persistent) (converted); for Percent Inhibition: cell-based assay of example 181, persistent
T1 construct: expressed in transfected cells
T1 sequence (P48764 26-834): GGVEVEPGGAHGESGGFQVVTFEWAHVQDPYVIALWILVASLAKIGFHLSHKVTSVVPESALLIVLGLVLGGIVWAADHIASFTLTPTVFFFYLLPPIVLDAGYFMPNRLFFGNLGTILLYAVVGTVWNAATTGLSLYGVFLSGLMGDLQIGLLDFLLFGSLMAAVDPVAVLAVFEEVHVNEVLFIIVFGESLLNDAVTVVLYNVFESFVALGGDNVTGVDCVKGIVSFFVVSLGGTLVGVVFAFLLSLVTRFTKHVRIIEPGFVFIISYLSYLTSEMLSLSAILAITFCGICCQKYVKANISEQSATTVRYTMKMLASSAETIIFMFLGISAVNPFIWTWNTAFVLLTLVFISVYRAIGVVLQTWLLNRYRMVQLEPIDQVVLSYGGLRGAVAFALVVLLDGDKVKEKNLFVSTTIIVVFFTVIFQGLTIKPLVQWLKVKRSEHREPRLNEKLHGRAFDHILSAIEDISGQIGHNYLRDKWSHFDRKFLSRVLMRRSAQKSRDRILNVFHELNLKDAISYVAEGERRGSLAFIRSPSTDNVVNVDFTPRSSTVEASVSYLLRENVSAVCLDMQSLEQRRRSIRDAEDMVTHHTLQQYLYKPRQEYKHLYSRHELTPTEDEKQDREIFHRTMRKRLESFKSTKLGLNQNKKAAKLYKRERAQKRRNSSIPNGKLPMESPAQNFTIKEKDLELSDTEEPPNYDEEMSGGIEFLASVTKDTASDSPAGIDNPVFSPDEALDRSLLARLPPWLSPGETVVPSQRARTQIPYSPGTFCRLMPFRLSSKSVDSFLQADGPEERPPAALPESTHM
T1 sequence (Q99653 2-195 partner limits assumed): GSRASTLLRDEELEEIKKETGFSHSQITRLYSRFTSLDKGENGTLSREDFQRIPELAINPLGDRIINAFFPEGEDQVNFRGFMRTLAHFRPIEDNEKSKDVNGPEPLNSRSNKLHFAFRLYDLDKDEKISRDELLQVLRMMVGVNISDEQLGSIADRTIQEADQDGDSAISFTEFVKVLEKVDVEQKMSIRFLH
Method: The following pairs of compounds differ only in the 4-position substituent (either chloro (X—Cl) or cyano (X—CN)):
The ability of compounds to inhibit human and rat NHE-3-mediated Na^+ dependent H^+ antiport after application and washout was measured using a modification of the pH sensitive dye method described above. PS120 fibroblasts stably expressing human NHE3 and NHERF2 were obtained from Mark Donowitz (Baltimore, Md.). Opossum kidney (OK) cells were obtained from the ATCC and propagated per their instructions. The rat NHE-3 gene was introduced into OK cells via electroporation, and cells were seeded into 96 well plates and grown overnight. Medium was aspirated from the wells, cells were washed once with NaCl-HEPES buffer (100 mM NaCl, 50 mM HEPES, 10 mM glucose, 5 mM KCl, 2 mM CaCl2, 1 mM MgCl2, pH 7.4), then overlayed with NaCl-HEPES buffer containing 0-30 μM test compound. After a 60 min incubation at room temperature, the test drug containing buffer was aspirated from the cells. Following aspiration, cells were washed once with NaCl-HEPES buffer without drug, then incubated for 30 min at 37° C. with NH4Cl-HEPES buffer (20 mM NH4Cl, 80 mM NaCl, 50 mM HEPES, 5 mM KCl, 2 mM CaCl2, 1 mM MgCl2, pH 7.4) containing 5 μM BCECF-AM. Cells were washed once with Ammonium free, Na^+-free HEPES (100 mM choline, 50 mM HEPES, 10 mM glucose, 5 mM KCl, 2 mM CaCl2, 1 mM MgCl2, pH 7.4) and incubated in the same buffer for 10 minutes at room temperature to lower intracellular pH. NHE-3-mediated recovery of neutral intracellular pH was initiated (10 min after compound washout) by addition of Na-HEPES buffer. […] Changes in intracellular pH were monitored using a FLIPR Tetra® (Molecular Devices, Sunnyvale, Calif.) by excitation at λex 439 to 505 nm, and measuring BCECF fluorescence at λem 538 nm. The initial rate of the fluorescence ratio change was used as a measure of NHE-mediated Na^+/H^+ activity, and reported as the change in fluorescence ratio per minute.

[2] = cell-based assay of example 181, after washout

| SMILES | % FA [1] [%] | also measured |
| --- | --- | --- |
| C=CCOc1ccccc1OCC(O)CNC(C)C (stereo not drawn) [ozprenolol] | 97 |  |
| CCN1CCCC1CNC(=O)c1cc(S(N)(=O)=O)ccc1OC (stereo not drawn) [sulpiride] | 36 |  |
| C=CCc1ccccc1OCC(O)CNC(C)C (stereo not drawn) [alprenolol] | 96 |  |
| Cc1cc(=O)n(-c2ccccc2)n1C [phenazone] | 97 |  |
| CC(C)NCC(O)COc1cccc2[nH]ccc12 (stereo not drawn) [pindolol] | 92 |  |
| CC(=O)Nc1ccc(OCC(O)CNC(C)C)cc1 (stereo not drawn) [practolol] | 95 |  |
| OC[C@H]1O[C@@H](O[C@@H]2[C@@H](CO)OC(O)(CO)[C@H]2O)[C@H](O)[C@@H](O)[C@H]1O (mixture of isomers) [lactulose, reference compound] | 0.6 |  |
| Cc1ccccc1N1C(=O)c2cc(S(N)(=O)=O)c(Cl)cc2NC1C (stereo not drawn) [metolazone, Metolazone, reference compound] | 64 |  |
| O=C(O)P(=O)(O)O [foscarnet] | 17 |  |
| O=C(O)c1cc(/N=N/c2ccc(O)c(C(=O)O)c2)ccc1O [olsalazine] | 2.3 |  |
| NC[C@H]1CC[C@H](C(=O)O)CC1 [tranexamic acid] | 55 |  |
| CN(C)C(=O)C(CCN1CCC(O)(c2ccc(Cl)cc2)CC1)(c1ccccc1)c1ccccc1 [loperamide, reference compound] |  | length of the small intestine travelled by the Evans Blue dye front (gastrointestinal transit): ~25% |
| C[C@@H]1CN([C@H]2Cc3c(C#N)cc(Cl)cc3[C@@H]2Oc2ccc(S(=O)(=O)N[C@H]3CCN(C(=O)CNC(=O)CNC(=O)NCCCCNC(=O)NCC(=O)NCC(=O)N4CC[C@H](NS(=O)(=O)c5ccc(O[C@H]6c7cc(Cl)cc(C#N)c7C[C@@H]6N6CCN[C@H](C)C6)cc5)C4)C3)cc2)CCN1 [B-CN, N-{2-[(3S)-3-(4-{[(1S,2S)-6-chloro-4-cyano-2-[(3R)-3-methylpiperazin-1-yl]-2,3-dihydro-1H-inden-1-yl]oxy}benzenesulfonamido)pyrrolidin-1-yl]-2-oxoethyl}-2-({[4-({[({2-[(3S)-3-(4-{[(1S,2S)-6-chloro-4-cyano-2-[(3R)-3-methylpiperazin-1-yl]-2,3-dihydro-1H-inden-1-yl]oxy}benzenesulfonamido)pyrrolidin-1-yl]-2-oxoethyl}carbamoyl)methyl]carbamoyl}amino)butyl]carbamoyl}amino)acetamide] |  | IC50 (NHE3; [2]): 0.126 nM; Percent Inhibition (NHE3): 110% |
| N#Cc1cc(Cl)cc2c1C[C@H](N1CCNCC1)[C@H]2Oc1ccc(S(=O)(=O)NCCOCCOCCNC(=O)NCCCCNC(=O)NCCOCCOCCNS(=O)(=O)c2ccc(O[C@H]3c4cc(Cl)cc(C#N)c4C[C@@H]3N3CCNCC3)c(F)c2)cc1F [D-CN, 3-(2-{2-[2-(4-{[(1S,2S)-6-chloro-4-cyano-2-(piperazin-1-yl)-2,3-dihydro-1H-inden-1-yl]oxy}-3-fluorobenzenesulfonamido)ethoxy]ethoxy}ethyl)-1-(4-{[(2-{2-[2-(4-{[(1S,2S)-6-chloro-4-cyano-2-(piperazin-1-yl)-2,3-dihydro-1H-inden-1-yl]oxy}-3-fluorobenzenesulfonamido)ethoxy]ethoxy}ethyl)carbamoyl]amino}butyl)urea] |  | IC50 (NHE3; [2]): 0.501 nM; Percent Inhibition (NHE3): 74% |
| N#Cc1cc(Cl)cc2c1C[C@H](N1CCNCC1)[C@H]2Oc1ccc(S(=O)(=O)NCCOCCOCCNC(=O)NCCCCNC(=O)NCCOCCOCCNS(=O)(=O)c2ccc(O[C@H]3c4cc(Cl)cc(C#N)c4C[C@@H]3N3CCNCC3)cc2)cc1 [G-CN, 3-(2-{2-[2-(4-{[(1S,2S)-6-chloro-4-cyano-2-(piperazin-1-yl)-2,3-dihydro-1H-inden-1-yl]oxy}benzenesulfonamido)ethoxy]ethoxy}ethyl)-1-(4-{[(2-{2-[2-(4-{[(1S,2S)-6-chloro-4-cyano-2-(piperazin-1-yl)-2,3-dihydro-1-yl]oxy}benzenesulfonamido)ethoxy]ethoxy}ethyl)carbamoyl]amino}butyl)urea] |  | pIC50 (persistent) (NHE3; [2]): 9.0 |
| OC[C@H]1O[C@H](OC[C@H]2O[C@H](O[C@]3(CO)O[C@H](CO)[C@@H](O)[C@@H]3O)[C@H](O)[C@@H](O)[C@@H]2O)[C@H](O)[C@@H](O)[C@H]1O [raffinose] | 0.3 |  |
| OC[C@@H](O)[C@@H](O)[C@H](O)[C@H](O)CO [mannitol, reference compound] | 26 |  |
| O=C(O)c1cc(/N=N/c2ccc(S(=O)(=O)Nc3ccccn3)cc2)ccc1O [sulfasalazine, reference compound] | 12 |  |
| Cc1cc(S(=O)(=O)NCCOCCOCCNC(=O)NCCCCNC(=O)NCCOCCOCCNS(=O)(=O)c2ccc(O[C@H]3c4cc(Cl)cc(Cl)c4C[C@@H]3N3CCNCC3)c(C)c2)ccc1O[C@H]1c2cc(Cl)cc(Cl)c2C[C@@H]1N1CCNCC1 [F-Cl, 3-(2-{2-[2-(4-{[(1S,2S)-4,6-dichloro-2-(piperazin-1-yl)-2,3-dihydro-1H-inden-1-yl]oxy}-3-methylbenzenesulfonamido)ethoxy]ethoxy}ethyl)-1-(4-{[(2-{2-[2-(4-{[(1S,2S)-4,6-dichloro-2-(piperazin-1-yl)-2,3-dihydro-1H-inden-1-yl]oxy}-3-methylbenzenesulfonamido)ethoxy]ethoxy}ethyl)carbamoyl]amino}butyl)urea] |  | IC50 (NHE3; [2]): 20 nM; Percent Inhibition (NHE3): 104% |
| Cc1cc(S(=O)(=O)NCCOCCOCCNC(=O)NCCCCNC(=O)NCCOCCOCCNS(=O)(=O)c2ccc(O[C@H]3c4cc(Cl)cc(C#N)c4C[C@@H]3N3CCNCC3)c(C)c2)ccc1O[C@H]1c2cc(Cl)cc(C#N)c2C[C@@H]1N1CCNCC1 [F-CN, 3-(2-{2-[2-(4-{[(1S,2S)-6-chloro-4-cyano-2-(piperazin-1-yl)-2,3-dihydro-1H-inden-1-yl]oxy}-3-methylbenzenesulfonamido)ethoxy]ethoxy}ethyl)-1-(4-{[(2-{2-[2-(4-{[(1S,2S)-6-chloro-4-cyano-2-(piperazin-1-yl)-2,3-dihydro-1H-inden-1-yl]oxy}-3-methylbenzenesulfonamido)ethoxy]ethoxy}ethyl)carbamoyl]amino}butyl)urea] |  | IC50 (NHE3; [2]): 2.51 nM; Percent Inhibition (NHE3): 88% |
